# Assay results: ChEMBL document CHEMBL1123565, “Synthesis and 5-hydroxytryptamine antagonist activity of 2-[[2-(dimethylamino)ethyl]thio]-3-phenylquinoline and its analogues” (J Med Chem, 1987)
# Activity calls are given as the source filed them. The rule behind the calls is not given here.
# What was measured:
# Rattus norvegicus [1] = test: Antagonistic activity against fenfluramine induced hyperthermia in rat after peroral administration; format: functional; conditions: po, read-out: ID50 (the source's name)
# Mus musculus [2] = test: Antagonistic activity test against 5-Hydroxytryptamine-induced head shake in mouse after intraperitoneal administration; format: functional; conditions: ip, read-out: ID50 (the source's name)
# Mus musculus [3] = test: compound was tested for antagonistic activity against 5-Hydroxytryptamine-induced head shake in mouse after intraperitoneal administration; NA denotes not active.; format: functional, organism-based
# Rattus norvegicus [4] = test: compound was tested for antagonistic activity against fenfluramine induced hyperthermia in rat after peroral administration; Value ranges from 0.3-4.3; format: functional; conditions: po, read-out: ID50 (the source's name)
# Mus musculus [5] = test: compound was tested for antagonistic activity against 5-Hydroxytryptamine-induced head shake in mouse after intraperitoneal administration; Value ranges from 1.0-2.5; format: functional; conditions: ip, read-out: ID50 (the source's name)
# Rattus norvegicus [6] = test: compound was tested for antagonistic activity against fenfluramine induced hyperthermia in rat after peroral administration; NA denotes not active at a dose of 50 mg/kg.; format: functional, organism-based; set-up: dose 50 mg/kg
# Rattus norvegicus [7] = test: compound was tested for antagonistic activity against fenfluramine induced hyperthermia in rat after peroral administration at 50 mg/kg; NA denotes not active.; format: functional, organism-based; set-up: dose 50 mg/kg
# Rattus norvegicus [8] = test: compound was tested for antagonistic activity against fenfluramine induced hyperthermia in rat after peroral administration at 50 mg/kg; format: functional, organism-based; set-up: dose 50 mg/kg
# Mus musculus [9] = test: compound was tested for antagonistic activity against 5-Hydroxytryptamine-induced head shake in mouse after intraperitoneal administration; NA denotes not active at a dose of 50 mg/kg.; format: functional, organism-based; set-up: dose 50 mg/kg
# Mus musculus [10] = species: Mus musculus; test: compound was tested for antagonistic activity against 5-Hydroxytryptamine-induced head shake in mouse; format: functional; conditions: read-out: ID50 (the source's name)
# Rattus norvegicus [11] = test: compound was tested for antagonistic activity against fenfluramine induced hyperthermia in rat after peroral administration at a dose of 50 mg/kg; NA denotes not active.; format: functional, organism-based; set-up: dose 50 mg/kg
# Mus musculus [12] = test: compound was tested for antagonistic activity against 5-Hydroxytryptamine-induced head shake in mouse after intraperitoneal administration; Value ranges from 0.02-0.9; format: functional; conditions: ip, read-out: ID50 (the source's name)
# Rattus norvegicus [13] = test: compound was tested for antagonistic activity against fenfluramine induced hyperthermia in rat after peroral administration 0.02-0.3; format: functional; conditions: po, read-out: ID50 (the source's name)
# Rattus norvegicus [14] = test: compound was tested for antagonistic activity against fenfluramine induced hyperthermia in rat after peroral administration; Value ranges from 0.1-1.3; format: functional; conditions: po, read-out: ID50 (the source's name)
# Mus musculus [15] = test: compound was tested for antagonistic activity against 5-Hydroxytryptamine-induced head shake in mouse after intraperitoneal administration; Value ranges from 0.35-0.77; format: functional; conditions: ip, read-out: ID50 (the source's name)
# Rattus norvegicus [16] = species: Rattus norvegicus; test: compound was tested for antagonistic activity against fenfluramine induced hyperthermia in rat; format: functional; conditions: read-out: ID50 (the source's name)
smiles,measurement,setting,value
CN(C)CCSc1nc2ccccc2cc1-c1ccccn1.O=C(O)C(=O)O,ED50,Rattus norvegicus [1],50 mg/kg
same,ED50,Mus musculus [2],3.4 mg/kg
Cc1cccc(-c2cc3ccccc3nc2SCCN(C)C)c1.Cl,ED50,Rattus norvegicus [1],5.9 mg/kg
same,ED50,Mus musculus [2],1.7 mg/kg
Cc1c(-c2ccccc2)c(SCCN(C)C)nc2ccccc12.O=C(O)C(=O)O,ED50,Rattus norvegicus [1],50 mg/kg
same,ED50,Mus musculus [2],6.2 mg/kg
COc1c(-c2ccccc2)c(SCCN(C)C)nc2ccccc12.O=C(O)C(=O)O,ED50,Rattus norvegicus [1],5.5 mg/kg
same,ED50,Mus musculus [2],3.5 mg/kg
CSc1ccc2cc(-c3ccccc3)c(SCCN(C)C)nc2c1,ED50,Rattus norvegicus [1],50 mg/kg
same,ID50,Mus musculus [3],inactive
COc1ccccc1-c1cc2ccccc2nc1SCCN(C)C.Cl,ED50,Rattus norvegicus [1],4.6 mg/kg
same,ED50,Mus musculus [2],1.2 mg/kg
CN(C)CCSc1nc2cc(N(C)C)ccc2cc1-c1ccccc1.O=C(O)C(=O)O,ED50,Rattus norvegicus [1],50 mg/kg
same,ID50,Mus musculus [3],inactive
CN(C)CCSc1nc2ccccc2cc1-c1ccccc1.Cl,ED50,Rattus norvegicus [4],1.2 mg/kg
same,ED50,Mus musculus [5],1.6 mg/kg
CN(C)CCSc1nc2ccccc2cc1-c1ccc(Cl)cc1.Cl,ID50,Rattus norvegicus [6],inactive
same,ED50,Mus musculus [2],9.1 mg/kg
CN(C)CCSc1nc2ccccc2cc1C1CCCC1.O=C(O)C(=O)O,ID50,Rattus norvegicus [7],inactive
same,ED50,Mus musculus [2],50 mg/kg
CN(C)CCSc1nc2ccccc2c(C(N)=O)c1-c1ccccc1,ID50,Rattus norvegicus [7],inactive
same,ID50,Mus musculus [3],inactive
COc1ccccc1-c1cc2cc(C)ccc2nc1SCCN(C)C.O=C(O)C(=O)O,ED50,Rattus norvegicus [1],50 mg/kg
same,ED50,Mus musculus [2],50 mg/kg
Cc1c(C(C)C)c(SCCN(C)C)nc2ccccc12.O=C(O)C(=O)O,ID50,Rattus norvegicus [7],inactive
same,ED50,Mus musculus [2],50 mg/kg
COc1ccc(OC)c(-c2cc3ccccc3nc2SCCN(C)C)c1.Cl,ED50,Rattus norvegicus [1],4.2 mg/kg
same,ED50,Mus musculus [2],3 mg/kg
CCN(CC)CCSc1nc2ccccc2cc1-c1ccccc1.Cl,ED50,Rattus norvegicus [1],50 mg/kg
same,ED50,Mus musculus [2],25 mg/kg
CN(C)CCSc1nc2ccccc2cc1-c1ccc(O)cc1.Cl,ED50,Rattus norvegicus [1],50 mg/kg
same,ED50,Mus musculus [2],7.9 mg/kg
Cc1ccccc1-c1cc2ccccc2nc1SCCN(C)C.Cl,ED50,Rattus norvegicus [1],50 mg/kg
same,ED50,Mus musculus [2],3 mg/kg
CN(C)CCSc1nc2ccccc2cc1-c1ccc(Br)cc1.Cl,ED50,Rattus norvegicus [1],50 mg/kg
same,ED50,Mus musculus [2],19.1 mg/kg
Cc1cc2ccccc2nc1SCCN(C)C,ID50,Rattus norvegicus [8],inactive
same,ID50,Mus musculus [9],inactive
Cc1cccc2cc(-c3ccccc3)c(SCCN(C)C)nc12,ID50,Rattus norvegicus [7],inactive
same,ID50,Mus musculus [3],inactive
CCCc1cc2ccccc2nc1SCCN(C)C.O=C(O)C(=O)O,ED50,Mus musculus [10],5 mg/kg
same,ID50,Rattus norvegicus [7],inactive
CN(C)CCSc1nc2ccc(Cl)cc2cc1-c1ccccc1.O=C(O)C(=O)O,ED50,Rattus norvegicus [1],50 mg/kg
same,ED50,Mus musculus [2],50 mg/kg
CN(C)CCSc1nc2ccccc2cc1-c1ccc(C(F)(F)F)cc1.Cl,ID50,Rattus norvegicus [11],inactive
same,ED50,Mus musculus [2],50 mg/kg
CN(C)CCSc1nc2ccccc2cc1-c1ccccc1Cl.Cl,ED50,Rattus norvegicus [1],9.9 mg/kg
same,ED50,Mus musculus [2],50 mg/kg
CCc1cc2ccccc2nc1SCCN(C)C.Cl,ED50,Rattus norvegicus [1],50 mg/kg
same,ED50,Mus musculus [2],50 mg/kg
Cc1c(-c2ccsc2)c(SCCN(C)C)nc2ccccc12.O=C(O)C(=O)O,ED50,Rattus norvegicus [1],50 mg/kg
same,ED50,Mus musculus [2],3.1 mg/kg
CN(C)CCSc1nc2ccccc2cc1-c1cccs1.O=C(O)C(=O)O,ED50,Rattus norvegicus [1],6.9 mg/kg
same,ED50,Mus musculus [2],4.9 mg/kg
COc1c(-c2ccsc2)c(SCCN(C)C)nc2ccccc12.O=C(O)C(=O)O,ID50,Rattus norvegicus [7],inactive
same,ED50,Mus musculus [2],50 mg/kg
CN(C)CCSc1nc2ccccc2cc1C(C)(C)C.O=C(O)C(=O)O,ID50,Rattus norvegicus [7],inactive
same,ED50,Mus musculus [2],50 mg/kg
CC(c1ccccc1)c1cc2ccccc2nc1SCCN(C)C.O=C(O)C(=O)O (stereo not drawn),ID50,Rattus norvegicus [7],inactive
same,ED50,Mus musculus [2],50 mg/kg
COc1c(-c2ccccc2C)c(SCCN(C)C)nc2ccccc12.Cl,ED50,Rattus norvegicus [1],7.2 mg/kg
same,ED50,Mus musculus [2],50 mg/kg
CCCOc1ccc(-c2cc3ccccc3nc2SCCN(C)C)cc1.Cl,ED50,Rattus norvegicus [1],5.3 mg/kg
same,ED50,Mus musculus [2],0.5 mg/kg
CN(C)CCSc1nc2ccc(Br)cc2cc1-c1ccccc1.O=C(O)C(=O)O,ED50,Rattus norvegicus [1],6.7 mg/kg
same,ED50,Mus musculus [2],50 mg/kg
CCN(C)CCSc1nc2ccccc2cc1-c1ccccc1.O=C(O)C(=O)O,ED50,Mus musculus [2],50 mg/kg
Cl.NCCSc1nc2ccccc2cc1-c1ccccc1,ED50,Rattus norvegicus [1],4.8 mg/kg
same,ED50,Mus musculus [2],50 mg/kg
CN(C)CCSc1nc2ccccc2cc1-c1ccsc1.O=C(O)C(=O)O,ED50,Rattus norvegicus [1],7.9 mg/kg
same,ED50,Mus musculus [2],3.4 mg/kg
CNCCSc1nc2ccccc2cc1-c1ccccc1.Cl,ED50,Rattus norvegicus [1],7 mg/kg
same,ED50,Mus musculus [2],6.2 mg/kg
Cc1ccc2cc(-c3ccccc3)c(SCCN(C)C)nc2c1.O=C(O)C(=O)O,ED50,Rattus norvegicus [1],50 mg/kg
same,ED50,Mus musculus [2],50 mg/kg
CCCOc1ccc2cc(-c3ccccc3)c(SCCN(C)C)nc2c1.O=C(O)C(=O)O,ED50,Rattus norvegicus [1],50 mg/kg
same,ED50,Mus musculus [2],50 mg/kg
COc1ccc2nc(SCCN(C)C)c(-c3ccccc3)cc2c1.O=C(O)C(=O)O,ED50,Rattus norvegicus [1],8.3 mg/kg
same,ED50,Mus musculus [2],50 mg/kg
Cc1ncc(-c2cc3ccccc3nc2SCCN(C)C)s1.O=C(O)C(=O)O,ED50,Rattus norvegicus [1],6.9 mg/kg
same,ED50,Mus musculus [2],4.9 mg/kg
CN(C)CCSc1nc2ccccc2cc1-c1ccccc1F.Cl,ED50,Rattus norvegicus [1],7.2 mg/kg
same,ED50,Mus musculus [2],1.9 mg/kg
Cc1ccc(-c2cc3ccccc3nc2SCCN(C)C)cc1.Cl,ED50,Rattus norvegicus [1],4.2 mg/kg
same,ED50,Mus musculus [2],1.9 mg/kg
COc1cccc(-c2cc3ccccc3nc2SCCN(C)C)c1.Cl,ED50,Rattus norvegicus [1],5.1 mg/kg
same,ED50,Mus musculus [2],25 mg/kg
COc1ccc(-c2cc3ccccc3nc2SCCN(C)C)cc1.Cl,ED50,Rattus norvegicus [1],28 mg/kg
same,ED50,Mus musculus [2],5.9 mg/kg
CCC(C)c1cc2ccccc2nc1SCCN(C)C.O=C(O)C(=O)O (stereo not drawn),ED50,Rattus norvegicus [1],50 mg/kg
same,ED50,Mus musculus [2],1.5 mg/kg
Cc1c(-c2ccc(F)cc2)c(SCCN(C)C)nc2ccccc12.O=C(O)C(=O)O,ED50,Rattus norvegicus [1],11.1 mg/kg
same,ED50,Mus musculus [2],50 mg/kg
CN(C)CCSc1nc2ccccc2cc1C1CCCCC1.Cl,ED50,Rattus norvegicus [1],50 mg/kg
same,ED50,Mus musculus [2],50 mg/kg
CN(C)CCSc1nc2ccccc2cc1-c1cccc(F)c1.Cl,ED50,Rattus norvegicus [1],4.6 mg/kg
same,ED50,Mus musculus [2],2.5 mg/kg
COc1ccccc1-c1c(SCCN(C)C)nc2ccccc2c1C.O=C(O)C(=O)O,ED50,Rattus norvegicus [1],50 mg/kg
same,ED50,Mus musculus [2],50 mg/kg
CCCCc1cc2ccccc2nc1SCCN(C)C.Cl,ED50,Rattus norvegicus [1],50 mg/kg
same,ED50,Mus musculus [2],2.3 mg/kg
COc1ccc2cc(-c3ccccc3)c(SCCN(C)C)nc2c1.Cl,ED50,Rattus norvegicus [1],3.1 mg/kg
same,ED50,Mus musculus [2],50 mg/kg
CN(C)CCSc1nc2ccccc2cc1-c1ccc(F)cc1.Cl,ED50,Rattus norvegicus [1],2.9 mg/kg
same,ED50,Mus musculus [2],1.7 mg/kg
O=C(c1ccc(F)cc1)C1CCN(CCn2c(=O)[nH]c3ccccc3c2=O)CC1 [KETANSERIN],ED50,Mus musculus [12],0.5 mg/kg
same,ED50,Rattus norvegicus [13],0.1 mg/kg
CC[C@@H](CO)NC(=O)[C@@H]1C=C2c3cccc4c3c(cn4C)C[C@H]2N(C)C1 [METHYSERGIDE],ED50,Rattus norvegicus [14],0.4 mg/kg
same,ED50,Mus musculus [15],0.52 mg/kg
CN(C)CCSc1nc2ccccc2cc1C1CC1.O=C(O)C(=O)O,ED50,Rattus norvegicus [1],25 mg/kg
same,ED50,Mus musculus [2],3.4 mg/kg
CSc1ccc(-c2cc3ccccc3nc2SCCN(C)C)cc1.Cl,ED50,Rattus norvegicus [16],7.8 mg/kg
same,ED50,Mus musculus [2],10 mg/kg
CSc1ccc2nc(SCCN(C)C)c(-c3ccccc3)cc2c1.O=C(O)C(=O)O,ED50,Rattus norvegicus [1],10.3 mg/kg
same,ED50,Mus musculus [2],50 mg/kg
CN(C)CCSc1nc2ccccc2cc1Cc1ccccc1.Cl,ID50,Rattus norvegicus [7],inactive
same,ED50,Mus musculus [2],50 mg/kg
COc1c(-c2ccc(F)cc2)c(SCCN(C)C)nc2ccccc12.O=C(O)C(=O)O,ED50,Rattus norvegicus [1],3.3 mg/kg
same,ED50,Mus musculus [2],50 mg/kg
CC(C)c1cc2ccccc2nc1SCCN(C)C.Cl,ED50,Rattus norvegicus [1],2.7 mg/kg
same,ED50,Mus musculus [2],2.6 mg/kg
CN(C)CCSc1nc2ccccc2cc1-c1ccc(C#N)cc1.Cl,ED50,Rattus norvegicus [1],10.7 mg/kg
same,ED50,Mus musculus [2],1.2 mg/kg
